Measurements from patent publication US5559232A, “Carboxamides” (Hoffmann-La Roche Inc., priority 1993, dated 1996).

What was measured:
human thrombin = human thrombin (Homo sapiens, UniProt P00734); assay: inhibition of the amidolytic activity of thrombin (chromogenic substrate S-2238); type: biochemical; settings: for Ki: human thrombin 0.5 nM, substrate S-2238, pH 7.8, room temperature; for q (ratio of the inhibition of trypsin to the inhibition of thrombin): specificity: Ki trypsin / Ki thrombin
Method: A differential inhibition of thrombin and other serine proteases by the above compounds is desirable in order to obtain compounds having as high a specificity as possible and at the same time to avoid possible side-effects.
Specific chromogenic peptide substrates can be used to determine the inhibition of the catalytic activity of the above proteases. The inhibition of the amidolytic activity of thrombin and trypsin by the above guanidines was determined as described hereinafter.
The measurements were carried out on microtitre plates at room temperature. For this, in each well of the plate 150 μl of buffer (50 mM Tris, 100 mM NaCl, 0.1% polyethylene glycol; pH 7.8) were mixed with 50 μl of the inhibitor dissolved in DMSO and diluted in the buffer, and 25 μl of human thrombin (0.5 nM final conc.) were added. After incubation for 10 minutes the reaction was started by the addition of chromogenic substrate S-2238 (H-D-Phe-Pip-Arg-paranitroaniline from Kabivitrum; 10 or 50 μm final conc.) and the hydrolysis of the substrate was followed spectrophotometrically on a kinetic microtiter plate reader for 5 minutes. After graphical presentation of the inhibition curves the Ki values were determined according to the method described in Blochem. J. 55, 1955, 170-171.

trypsin = assay: inhibition of the amidolytic activity of trypsin (chromogenic substrate S-2251); type: biochemical; settings: substrate S-2251, 200 and 750 μM, otherwise analogous to thrombin

Ki (human thrombin) [µM] | q (ratio of the inhibition of trypsin to the inhibition of thrombin) (human thrombin) | Ki (trypsin) [µM] | SMILES
0.33 | 279 | 92 | N=C(N)N1CCOC(CNC(=O)C[C@H](NC(=O)OCc2ccccc2)C(=O)N(CCC(=O)O)C2CC2)C1 (stereo partly drawn) [Example 6c, 3-[[(S)-3-[4-(amino-imino-methyl)-morpholin-2-ylmethylcarbamoyl]-2-benzyloxycarbonylamino-propionyl]-cyclopropyl-amino]propionic acid]
0.017 | 1588 | 27 | N=C(N)N1CCC[C@@H](CNC(=O)C[C@H](NC(=O)OCC2CCCCC2)C(=O)N(CC(=O)O)C2CC2)C1 [Example 8, [[(S)-3-[(S)-1-(Amino-imino-methyl)-piperidin-3-ylmethylcarbamoyl]-2-cyclohexylmethoxycarbonylamino-propionyl]cyclopropyl-amino]-acetic acid]
